Entries after “also recorded” stand apart in the source; their conditions may differ.
Assays:
Type in all cases: cell-based, human
GPR160 gene = experiment: Quantitative RT-PCR of GPR160 expression after lentiviral shRNA infection; conditions: compared with control virus ShGPR160-S10
Text: The total RNA of each cultured cell was extracted with Trizol reagent (Invitrogen), Oligo-dT was used as primer, and reverse transcriptase was transcribed to generate cDNA. The template and primers were mixed with SYBR detection reagents (TaKaRa) and detected by 7300 Quantitative PCR instrument. The reference gene encodes the β-actin gene ACTB (NC 000007.14).
The lentivirus shRNA expression plasmid (Cat. No. TL312662) was purchased from OriGene, in which the target gene sequence targeted by the GPR160 siRNA is shown in SEQ ID NO: 1, and the sense strand sequence of the siRNA is shown in SEQ ID NO.: 6, SEQ ID NO: 7, SEQ ID NO.: 8, SEQ ID NO: 9, respectively. The sense strand sequence of the non-specific control siRNA is shown in SEQ ID NO: 10.
The siRNA expression plasmid pGFP-C-shGPR160 and the control plasmid pGFP-C-Scramble were extracted with Qiagene plasmid extraction kit and mixed with the packaging plasmid, and then 293T cells that had been inoculated for 24 hours were transfected with MegaTran (OriGene), and the virus supernatant was collected after 72 hours. After centrifugation at 15000 rpm for 15 minutes to remove cell debris, a quarter volume of Lentivirus Concentration (Biomiga) was added for concentration, and was stored at −80° C. in aliquots. Viruses produced by transfection of pGFP-C-shGPR160 plasmid containing the sequences SEQ ID NO: 6 to SEQ ID NO: 9 were labeled as ShGPR160-S6, ShGPR160-S7, ShGPR160-S8, and ShGPR160-S9, respectively. The virus produced by transfection of the non-specific control plasmid was designated ShGPR160-S10.
PC-3 and LNCaP cells were infected with the prepared lentiviruses at multiplicity of infection (MOI) of 40 and 10, respectively. After 72 hours, the total RNA of the infected cells was extracted, and the expression of GPR160 in the cells was detected by quantitative RT-PCR.

LNCaP cells [1] = experiment: Colony formation, crystal violet staining; conditions: 12 to 20 days culture, versus ShGPR160-S10 control group (100%)
Description: (§1) Based on the above results, PC-3 and LNCaP cells were infected with ShGPR160-S6, ShGPR160-S7, and ShGPR160-S10 for 48 hours, and inoculated into […] at 1000/2 ml/well. After 12 to 20 days of continuous culture, the cells were stained with 0.1% crystal violet solution, dried, and the number of colonies per well counted. The group infected with ShGPR160-S10 virus was set as a 100% control.

PC-3 cells [2] = experiment: Colony formation, crystal violet staining; conditions: 12 to 20 days culture, versus ShGPR160-S10 control group (100%)
Description: as §1

LNCaP cells [3] = experiment: CCK-8 proliferation assay; conditions: infected 48 hours, cultured 1, 3 and 5 days, Scramble group = 100%
Description: (§2) To examine the effect of GPR160-specific SiRNAs on proliferation of prostate cancer cells, PC-3 and LNCaP cells, after infected by virus for 48 hours, were plated in 96-well plates at a density of 5000/100/μl/well and 2500/100 μl/well, respectively, and cultured for 1, 3, and 5 days respectively, 10 μl/well of CCK-8 detection reagent (TaKaRa) was added 4 hours before the end of culture, and light absorption at 450 nm was detected at the end of incubation. The reference wavelength was 650 nm. The reading of Scramble group was set to 100%.

PC-3 cells [4] = experiment: CCK-8 proliferation assay; conditions: infected 48 hours, cultured 1, 3 and 5 days, Scramble group = 100%
Description: as §2

[5] = LNCaP cells, MOI 10, 72 hours after infection
[6] = PC-3 cells, MOI 40, 72 hours after infection

Row | Substance | inhibitory efficiency on GPR160 expression (GPR160 gene; [5]) | inhibitory efficiency on GPR160 expression (GPR160 gene; [6]) | number of clones formed (LNCaP cells [1]) | number of clones formed (PC-3 cells [2]) | effect on proliferation (LNCaP cells [3]) | effect on proliferation (PC-3 cells [4])
1 | ShGPR160-S9: Lentivirus from pGFP-C-shGPR160 plasmid; siRNA sense strand SEQ ID NO.: 9, 5′-CCATTTGTCAACTGGAAGTGCTGCTTCAT-3′ | 56.2% | 41.8% | – | – | – | –
2 | ShGPR160-S6: Lentivirus from pGFP-C-shGPR160 plasmid; siRNA sense strand SEQ ID NO.: 6, 5′-TTGGTACAGGCTATCAGGATAACTTCCTA-3′ | 86.2% | 87.8% | significantly less | significantly less | significantly inhibited | significantly inhibited
3 | ShGPR160-S7: Lentivirus from pGFP-C-shGPR160 plasmid; siRNA sense strand SEQ ID NO.: 7, 5′-TTCTATGTCAGCATTCAGAGTTACTGGCT-3′ | 91.7% | 85.0% | significantly less | significantly less | significantly inhibited | significantly inhibited
4 | ShGPR160-S8: Lentivirus from pGFP-C-shGPR160 plasmid; siRNA sense strand SEQ ID NO.: 8, 5′-CCATCTACCAAAGCCTGAAGGCACAGAAT-3′ | 32.8% | 41.7% | – | – | no inhibitory effect; also recorded: no significant effect | –

— patent US10865415B2, “Prevention, diagnosis and treatment of cancer overexpressing GPR160” (Shanghai Institute of Materia Medica, Chinese Academy of …, priority 2015, dated 2020)
